According to the supplement of paper PMC11061612:

Key:
Test in all cases: combination Emax (second highest fraction inhibited in the dose matrix, 72 h); higher = more inhibition; extreme values may be limits of the assay
[1] = system: NKM-1 (Acute Myeloid Leukemia)
In short: (§1)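 Cell lines grown in DMEM/F12 or RPMI with 10% FBS were plated in 1536-well plates and held 24 hours at 37°C, 5% CO2 before 72 hours of exposure to two-drug dose matrices, with DMSO typically at 0.2%. CellTiter-Glo 2.0 luminescence gave viability, which was converted to inhibition. Vehicle wells were set to 0 and blank wells to 1. Combination Emax is the second-highest inhibition in the matrix, and Bliss excess is the observed combination effect minus the expected EA + EB − EA·EB, where EA and EB are the single-agent effects.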

[2] = system: HTC-C3 (Thyroid Gland Carcinoma)
In short: as §1

[3] = system: NCI-H1623 (Lung Adenocarcinoma)
In short: as §1

[4] = system: 786-0 (Kidney Carcinoma)
In short: as §1

[5] = system: NCI-H810 (Non-Small Cell Lung Carcinoma)
In short: as §1

[6] = system: LAMA-84 (Chronic Myelogenous Leukemia)
In short: as §1

[7] = system: Becker (Low Grade Glioma)
In short: as §1

[8] = system: Calu-6 (Non-Small Cell Lung Carcinoma)
In short: as §1

[9] = system: RL95-2 (Endometrial Carcinoma)
In short: as §1

[10] = system: KYSE-70 (Esophageal Squamous Cell Carcinoma)
In short: as §1

[11] = system: Caov-3 (Ovarian Carcinoma)
In short: as §1

[12] = system: CML-T1 (Chronic Myelogenous Leukemia)
In short: as §1

[13] = system: COLO-684 (Endometrial Carcinoma)
In short: as §1

[14] = system: NCI-H1563 (Lung Adenocarcinoma)
In short: as §1

[15] = system: SJRH30 (Rhabdomyosarcoma)
In short: as §1

[16] = system: FLO-1 (Esophageal Adenocarcinoma)
In short: as §1

[17] = system: NCI-H1155 (Non-Small Cell Lung Carcinoma)
In short: as §1

[18] = system: SNU-175 (Colorectal Carcinoma)
In short: as §1

[19] = system: BALL-1 (B-Lymphoblastic Leukemia)
In short: as §1

[20] = system: RT4 (Bladder Carcinoma)
In short: as §1

Cc1c2c(nn1C)CSCc1cc(n(C)n1)CSc1cc(c3ccccc3c1)OCCCc1c(C(=O)O)n(C)c3c-2c(Cl)ccc13 [AZD5991] + C=CCn1c(=O)c2cnc(Nc3ccc(N4CCN(C)CC4)cc3)nc2n1-c1cccc(C(C)(C)O)n1 [AZD1775] (first compound max 1 µM, partner max 1 µM)
combination Emax [1]: 0.979 | combination Emax [2]: 0.454 | combination Emax [3]: 0.959 | combination Emax [4]: 0.804 | combination Emax [5]: 0.949 | combination Emax [6]: 0.968 | combination Emax [7]: 0.224 | combination Emax [8]: 0.77 | combination Emax [9]: 1 | combination Emax [10]: 0.655 | combination Emax [11]: 0.775 | combination Emax [12]: 0.938 | combination Emax [13]: 0.739 | combination Emax [14]: 0.595 | combination Emax [15]: 0.912 | combination Emax [16]: 0.891 | combination Emax [17]: 0.786 | combination Emax [18]: 0.868 | combination Emax [19]: 1 | combination Emax [20]: 0.53

COc1cc2c(cc1OCCCCCOc1cc3c(cc1OC)C(=O)N1C=C(C)C[C@H]1C=N3)N=C[C@@H]1CC(C)=CN1C2=O [SG3199] + O=C(c1cc(Cc2n[nH]c(=O)c3ccccc23)ccc1F)N1CCN(C(=O)C2CC2)CC1 [Olaparib] (first compound max 0.001 µM, 7x7, partner max 10 µM)
combination Emax [1]: 0.663 | combination Emax [2]: 0.246 | combination Emax [3]: 0.376 | combination Emax [4]: 0.0509 | combination Emax [5]: 0.131 | combination Emax [6]: 0.226 | combination Emax [7]: 0.0512 | combination Emax [8]: 0.186 | combination Emax [9]: 0.264 | combination Emax [10]: 0.0678 | combination Emax [11]: 0.202 | combination Emax [12]: 0.738 | combination Emax [13]: 0.0915 | combination Emax [14]: 0.173 | combination Emax [15]: 0.122 | combination Emax [16]: 0.186 | combination Emax [17]: 0.263 | combination Emax [18]: 0.112 | combination Emax [19]: 0.845 | combination Emax [20]: 0.169

CCc1c2c(nc3ccc(O)cc13)-c1cc3c(c(=O)n1C2)COC(=O)[C@]3(O)CC [SN-38] + CN(C)CCCOc1ccc(-c2ccc3ncc4c(c3c2)n(C2CCOCC2)c(=O)n4C)cn1 [AZD0156] (first compound max 0.3 µM, 7x7, partner max 1 µM)
combination Emax [1]: 0.973 | combination Emax [2]: 0.764 | combination Emax [3]: 0.822 | combination Emax [4]: 0.884 | combination Emax [5]: 0.51 | combination Emax [6]: 0.94 | combination Emax [7]: 0.847 | combination Emax [8]: 0.762 | combination Emax [9]: 0.424 | combination Emax [10]: 0.25 | combination Emax [11]: 0.977 | combination Emax [12]: 1 | combination Emax [13]: 0.473 | combination Emax [14]: 0.441 | combination Emax [15]: 0.359 | combination Emax [16]: 0.664 | combination Emax [17]: 0.962 | combination Emax [18]: 0.478 | combination Emax [19]: 1 | combination Emax [20]: 0.819

Cc1cc2ncnn2cc1Nc1ncc2c(n1)n(C1CCOCC1)c(=O)n2C [AZD7648] + O=C(c1cc(Cc2n[nH]c(=O)c3ccccc23)ccc1F)N1CCN(C(=O)C2CC2)CC1 [Olaparib] (first compound max 10 µM, 7x7, partner max 10 µM)
combination Emax [1]: 0.73 | combination Emax [2]: 0.214 | combination Emax [3]: 0.446 | combination Emax [4]: 0.101 | combination Emax [5]: 0.193 | combination Emax [6]: 0.17 | combination Emax [7]: 0.12 | combination Emax [8]: 0.355 | combination Emax [9]: 0.264 | combination Emax [10]: 0.124 | combination Emax [11]: 0.28 | combination Emax [12]: 0.71 | combination Emax [13]: 0.238 | combination Emax [14]: 0.331 | combination Emax [15]: 0.0648 | combination Emax [16]: 0.208 | combination Emax [17]: 0.293 | combination Emax [18]: 0.0944 | combination Emax [19]: 0.826 | combination Emax [20]: 0.28

CN(CCO)CC[C@H](CSc1ccccc1)Nc1ccc(S(=O)(=O)NC(=O)c2ccc(N3CCC([C@@H](O)c4ccccc4-c4ccc(Cl)cc4)CC3)cc2)cc1S(=O)(=O)C(F)(F)F [AZD4320] + C1CN(CCC1(C(=O)N[C@@H](CCO)C2=CC=C(C=C2)Cl)N)C3=NC=NC4=C3C=CN4 [Capivasertib] (first compound max 1 µM, 7x7, partner max 3 µM)
combination Emax [1]: 1 | combination Emax [2]: 0.207 | combination Emax [3]: 0.278 | combination Emax [4]: 0.402 | combination Emax [5]: 0.482 | combination Emax [6]: 0.696 | combination Emax [7]: 0.298 | combination Emax [8]: 0.448 | combination Emax [9]: 0.533 | combination Emax [10]: 0.167 | combination Emax [11]: 0.363 | combination Emax [12]: 0.977 | combination Emax [13]: 0.447 | combination Emax [14]: 0.389 | combination Emax [15]: 0.427 | combination Emax [16]: 0.343 | combination Emax [17]: 0.904 | combination Emax [18]: 0.501 | combination Emax [19]: 1 | combination Emax [20]: 0.144

CN(CCO)CC[C@H](CSc1ccccc1)Nc1ccc(S(=O)(=O)NC(=O)c2ccc(N3CCC([C@@H](O)c4ccccc4-c4ccc(Cl)cc4)CC3)cc2)cc1S(=O)(=O)C(F)(F)F [AZD4320] + C[C@@H]1COCCN1C2=NC(=NC(=C2)C3(CC3)[S@](=N)(=O)C)C4=C5C=CNC5=NC=C4 [AZD6738] (first compound max 1 µM, 7x7, partner max 10 µM)
combination Emax [1]: 1 | combination Emax [2]: 0.881 | combination Emax [3]: 0.871 | combination Emax [4]: 0.815 | combination Emax [5]: 0.86 | combination Emax [6]: 0.989 | combination Emax [7]: 0.846 | combination Emax [8]: 0.891 | combination Emax [9]: 0.751 | combination Emax [10]: 0.493 | combination Emax [11]: 0.958 | combination Emax [12]: 1 | combination Emax [13]: 0.728 | combination Emax [14]: 0.433 | combination Emax [15]: 0.927 | combination Emax [16]: 0.742 | combination Emax [17]: 0.985 | combination Emax [18]: 0.936 | combination Emax [19]: 1 | combination Emax [20]: 0.791
